Laboratory results taken from patent US20230348450A1, “CARBOXYLIC ACID-CONTAINING COMPOUNDS AS MODULATORS OF BIS-PHOSPHOGLYCERATE MUTASE FOR THE TREATMENT OF SICKLE CELL DISEASE” (Genzyme Corporation, priority 2020, published 2023).

Tests used:
[1] = molecular target: human Bisphosphoglycerate mutase (hBPGM) (Homo sapiens (Human), UniProt P07738); experiment: BPGM Phosphatase Assay; type: biochemical; details: Table 6 additional results; read-out: huBPGM: phosphatase Enzyme EC50
Description: Solutions of the test compounds were then added to the plate and the DMSO content was normalized across the plate. The plate was incubated at RT for 15 min. Next, the substrate 2,3-BPG (5 μL) was added to all the wells, and the plate was sealed and incubated for 24 hr at RT. After incubation, BIOMOL green dye (40 μL) was added to all the wells, the plate was shaken to mix, and the plate was incubated at RT for 20-30 min.

hBPGM = hBPGM (Homo sapiens (Human), UniProt P07738); experiment: BPGM Synthase Assay; type: biochemical; details: Table 6 additional results; read-out: huBPGM: synthase Enzyme IC50
Outline: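 BPGM (5 nM) with GAPDH (0.4 U/mL) was incubated with compound for 30 min at RT in pH 7.4 Tris buffer with 3.23 mM KH2PO4 and 1 mM DTT. Reaction ran 60 min with NAD, 3PG and GAP (substrate solution 2 mM, 20 μM and 800 μM). After koningic acid stop, NADH fluorescence was read, then resorufin from diaphorase/resazurin coupling.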

Chain of hBPGM (P07738 whole entry, looked up): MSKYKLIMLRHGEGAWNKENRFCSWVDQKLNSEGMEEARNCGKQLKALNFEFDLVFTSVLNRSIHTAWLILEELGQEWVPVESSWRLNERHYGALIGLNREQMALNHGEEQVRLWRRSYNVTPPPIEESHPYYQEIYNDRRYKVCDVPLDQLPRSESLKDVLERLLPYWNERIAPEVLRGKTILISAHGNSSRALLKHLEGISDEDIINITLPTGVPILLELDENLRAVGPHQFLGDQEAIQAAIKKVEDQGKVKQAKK
Chain of human Bisphosphoglycerate mutase (hBPGM) (P07738 whole entry): as the sequence (P07738 whole entry, looked up) above

Row | Structure (SMILES) | EC50 [1] [µM] | IC50 (hBPGM) [µM]
1 | COC(=O)NCc1nc(C)c(-c2csc(-c3ccc(C(=O)O)c(O)c3)c2)s1 [Example 166] | 0.07 | 0.25
2 | COC(=O)NCc1nc(C)c(-c2cc(-c3cc(O)c(C(=O)O)cc3F)sn2)s1 [Example 168] | 0.53 | 0.37
3 | Cc1nc(CNCC(=O)N(C)C)sc1-c1csc(-c2cc(O)c(C(=O)O)cc2F)n1 [Example 169] | 0.11 | 0.48
4 | Cc1nc(CNC(=O)c2cccnn2)sc1-c1csc(-c2cc(O)c(C(=O)O)cc2F)n1 [Example 171] | 0.03 | 0.028
5 | Cc1nc(CNC(=O)c2cc[nH]n2)sc1-c1csc(-c2cc(O)c(C(=O)O)cc2F)n1 [Example 172] | 0.04 | 0.04
6 | Cc1nc(CNC(=O)c2ccn(C)n2)sc1-c1csc(-c2cc(O)c(C(=O)O)cc2F)n1 [Example 173] | 0.1 | 0.049
7 | Cc1nc(CNC2CCCCC2)sc1-c1csc(-c2cc(O)c(C(=O)O)cc2F)n1 [Example 174] | 0.23 | 0.53
8 | COCCNCc1nc(C)c(-c2csc(-c3cc(O)c(C(=O)O)cc3F)n2)s1 [Example 175] | 0.32 | 0.52
9 | COC(=O)N[C@@H](C)c1nc(C)c(-c2csc(-c3cc(O)c(C(=O)O)cc3F)n2)s1 [Example 177] | 0.16 | 0.059
10 | Cc1nc(NCC(=O)N(C)C)sc1-c1csc(-c2cc(O)c(C(=O)O)cc2F)n1 [Example 178] | 3.1 | 0.2
11 | Cc1nc(CNC(=O)c2cccc(C#N)n2)sc1-c1csc(-c2cc(O)c(C(=O)O)cc2F)n1 [Example 180] | 0.02 | 0.028
12 | Cc1nc(Cn2cccnc2=O)sc1-c1csc(-c2cc(O)c(C(=O)O)cc2F)n1 [Example 181] | 0.08 | 0.21
13 | Cc1nc(Cc2ccccc2)sc1-c1csc(-c2cc(O)c(C(=O)O)cc2F)n1 [Example 182] | 0.05 | 0.56
14 | Cc1nc(C)c(-c2cc(-c3cc(O)c(C(=O)O)cc3F)sn2)s1 [Example 183] | 0.28 | 0.66
15 | Cc1nc(C)c(-c2csc(-c3ccc(C(=O)O)c(O)c3)n2)s1 [Example 184] | 0.08 | 1.5
16 | COC(=O)NCc1nc(C)c(-c2ccnc(-c3ccc(C(=O)O)c(O)c3)n2)s1 [Example 185] | 0.03 | 0.16
17 | Cc1nc(CNC2CCC2)sc1-c1csc(-c2cc(O)c(C(=O)O)cc2F)n1 [Example 186] | 0.03 | 0.38
18 | COC(=O)NC(C)c1nc(C)c(-c2csc(-c3cc(O)c(C(=O)O)cc3F)n2)s1 (stereo not drawn) [Example 188] | 0.16 | 0.055
19 | Cc1nc(Cc2ccn(C)n2)sc1-c1csc(-c2ccc(C(=O)O)c(O)c2)n1 [Example 189] | 0.33 | 0.12
20 | Cc1nc(C(=O)c2ccn(C)n2)sc1-c1csc(-c2ccc(C(=O)O)c(O)c2)n1 [Example 190] | 0.61 | 0.36
21 | COC(=O)NCc1nc(C)c(-c2csc(-c3cc(O)c(C(=O)NCC(=O)O)cc3F)n2)s1 [Example 191] | 0.57 | 0.78

Row | Structure (SMILES) | EC50 [1] [µM] | IC50 (hBPGM) [µM]
22 | Cc1nc(CNC(=O)c2ncccn2)sc1-c1csc(-c2cc(O)c(C(=O)O)cc2F)n1 [Example 192] | 0.12 | 0.049
23 | COC(=O)NCc1nc(C)c(-c2nsc(-c3ccc(C(=O)O)c(O)c3)n2)s1 [Example 193] | 0.36 | 0.17
24 | CC(=O)Nc1nc(C)c(-c2csc(-c3cc(O)c(C(=O)O)cc3F)n2)s1 [Example 194] | 0.14 | 0.25
25 | Cc1nc(CNC(=O)c2cccnn2)sc1-c1csc(-c2cc(O)c(C(=O)O)cc2F)n1 [Example 197] | 0.22 | 0.024
26 | Cc1nc(CNC(=O)N2CCCC2)sc1-c1csc(-c2cc(O)c(C(=O)O)cc2F)n1 [Example 198] | 0.19 | 0.05
27 | Cc1nc(CNC(=O)c2cccnc2)sc1-c1csc(-c2cc(O)c(C(=O)O)cc2F)n1 [Example 199] | 0.32 | 0.067
28 | Cc1nc(CNC(=O)c2ccccn2)sc1-c1csc(-c2cc(O)c(C(=O)O)cc2F)n1 [Example 200] | 0.27 | 0.073
29 | COC(=O)C(=O)NCc1nc(C)c(-c2csc(-c3cc(O)c(C(=O)O)cc3F)n2)s1 [Example 201] | 0.64 | 0.11
30 | Cc1nc(CNC(=O)C(N)=O)sc1-c1csc(-c2cc(O)c(C(=O)O)cc2F)n1 [Example 202] | 0.15 | 0.12
31 | Cc1nc(CNC(=O)C(=O)N(C)C)sc1-c1csc(-c2cc(O)c(C(=O)O)cc2F)n1 [Example 203] | 0.98 | 0.21
32 | Cc1nc(COc2cccc(N)n2)sc1-c1csc(-c2cc(O)c(C(=O)O)cc2F)n1 [Example 204] | 0.25 | 0.27
33 | COC(=O)NCc1nc(C)c(-c2csc(-c3cc(O)c(C(=O)O)cn3)n2)s1 [Example 207] | 0.34 | 0.28
34 | COC(=O)NCc1nc(C)c(-c2csc(-c3cc(C)c(C(=O)O)c(O)c3)n2)s1 [Example 208] | 0.42 | 0.36
35 | COC(=O)NCc1nc(C)c(-c2csc(-c3cc(O)c(C(=O)O)cc3F)n2)s1 [Example 209] | 0.47 | 0.25
36 | Cc1nc(N)sc1-c1csc(-c2cc(O)c(C(=O)O)cc2F)n1 [Example 210] | 0.83 | 0.93
37 | COC(=O)NCc1nc(C)c(-c2csc(-c3cc(O)c(C(=O)O)cc3Cl)n2)s1 [Example 211] | 0.19 | 0.1
38 | Cc1nc(CNC(=O)c2ccccc2)sc1-c1csc(-c2cc(O)c(C(=O)O)cc2F)n1 [Example 212] | 0.1 | 0.16
39 | COC(=O)NCc1nc(C)c(-c2csc(-c3ccc(C(=O)O)c(O)c3)n2)s1 [Example 213] | 0.14 | 0.13
40 | Cc1nc(CNC(=O)OC2CC2)sc1-c1csc(-c2cc(O)c(C(=O)O)cc2F)n1 [Example 215] | 0.055 | 0.095
41 | Cc1nc(Cc2ccn(C)n2)sc1-c1csc(-c2ccc(C(=O)O)c(O)c2)c1 [Example 216] | 0.2 | 0.19
42 | Cc1nc(Cc2cccnc2)sc1-c1cccc(-c2cc(O)c(C(=O)O)cc2F)n1 [Example 217] | 0.12 | 0.11

Row | Structure (SMILES) | EC50 [1] [µM] | IC50 (hBPGM) [µM]
43 | Cc1nc(COc2ccnn2C)sc1-c1csc(-c2cc(O)c(C(=O)O)cc2F)n1 [Example 218] | 0.17 | 0.13
44 | Cc1nc(COc2ccn(C)n2)sc1-c1csc(-c2cc(O)c(C(=O)O)cc2F)n1 [Example 219] | 0.065 | 0.12
45 | Cc1nc(CNC(=O)C2CCC2)sc1-c1csc(-c2cc(O)c(C(=O)O)cc2F)n1 [Example 220] | 0.063 | 0.052
46 | Cc1nc(CNc2ccn(C)n2)sc1-c1csc(-c2cc(O)c(C(=O)O)cc2F)n1 [Example 221] | 0.035 | 0.09
47 | Cc1nc(CNC(=O)C2CCCC2)sc1-c1csc(-c2cc(O)c(C(=O)O)cc2F)n1 [Example 222] | 0.13 | 0.11
48 | Cc1nc(Cn2cccn2)sc1-c1cccc(-c2cc(O)c(C(=O)O)cc2F)n1 [Example 223] | 0.19 | 0.15
49 | Cc1nc(CNS(C)(=O)=O)sc1-c1csc(-c2cc(O)c(C(=O)O)cc2F)n1 [Example 224] | 0.3 | 0.26
50 | COC(=O)NCc1nc(C)c(-c2csc(-c3c(F)cc(C(=O)O)cc3F)n2)s1 [Example 225] | 7.3 | 0.83
51 | Cc1nc(CNC(=O)N(C)C)sc1-c1csc(-c2cc(O)c(C(=O)O)cc2F)n1 [Example 226] | 0.11 | 0.056
52 | CCOC(=O)NCc1nc(C)c(-c2csc(-c3cc(O)c(C(=O)O)cc3F)n2)s1 [Example 227] | 0.09 | 0.076
53 | Cc1nc(Cc2cccnc2)sc1-c1csc(-c2cc(O)c(C(=O)O)cc2F)n1 [Example 228] | 0.055 | 0.087
54 | Cc1nc(Cn2cccn2)sc1-c1csc(-c2cc(O)c(C(=O)O)cc2F)c1 [Example 229] | 0.03 | 0.19
55 | Cc1nc(CN)sc1-c1csc(-c2ccc(C(=O)O)c(O)c2)n1 [Example 230] | > 25 | 4.4
56 | Cc1nc(CNC(=O)C(C)C)sc1-c1csc(-c2cc(O)c(C(=O)O)cc2F)n1 [Example 231] | 0.17 | 0.052
57 | Cc1nc(CNC(=O)C2CC2)sc1-c1csc(-c2cc(O)c(C(=O)O)cc2F)n1 [Example 232] | 0.093 | 0.06
58 | Cc1nc(CNC(=O)C2CC2)sc1-c1csc(-c2cc(O)c(C(=O)O)cc2F)c1 [Example 233] | 0.11 | 0.078
59 | Cc1nc(CNC(=O)OC(C)C)sc1-c1csc(-c2cc(O)c(C(=O)O)cc2F)n1 [Example 234] | 0.08 | 0.084
60 | COC(=O)NCc1nc(C)c(-c2cccc(-c3cc(O)c(C(=O)O)cc3F)n2)s1 [Example 235] | 0.14 | 0.11
61 | Cc1nc(CNC(=O)C2CC2)sc1-c1cccc(-c2cc(O)c(C(=O)O)cc2F)n1 [Example 236] | 0.36 | 0.13
62 | Cc1nc(Cc2cccnc2)sc1-c1cccc(-c2ccc(C(=O)O)c(O)c2)n1 [Example 237] | 0.17 | 0.14
63 | COC(=O)NCc1nc(C)c(-c2csc(-c3ccc(C(=O)O)cc3F)n2)s1 [Example 238] | > 25 | 1.3
